In US10100045B2, “3-aryl-2H-pyrazolo[4,3-b]pyridine compounds and their use as AMPA receptor modulators” (Janssen Pharmaceutica NV, priority 2016, dated 2018):

The compounds below were run against GluA1o-γ8 (GRIA1o-CACNG8 fusion construct; TARP γ8 dependent AMPA receptor) (Homo sapiens (Human), UniProt P42261+Q8WXS5) (assay: Calcium flux assay (FLIPR), inhibition of glutamate response of GluA1o-γ8 channel). Conditions: HEK293 cells stably expressing GRIA1o-CACNG8 fusion; 15 μM glutamate; negative log of the IC50 in molar.
Assay type: cell-based
Description: This assay was used to test compounds for their ability to inhibit TARP γ8 dependent AMPA receptor activity. The AMPA receptor is a non-selective cation channel activated by glutamate. Ionotropic glutamate receptors normally desensitize too rapidly to allow detectable calcium influx in a FLIPR assay (Strange et al. (2006). “Functional characterisation of homomeric ionotropic glutamate receptors GluR1-GluR6 in a fluorescence-based high throughput screening assay.” Comb Chem High Throughput Screen 9(2): 147-158). But, this desensitization is incomplete, and a substantial steady-state current remains in the sustained presence of glutamate (Cho et al. (2007). “Two families of TARP isoforms that have distinct effects on the kinetic properties of AMPA receptors and synaptic currents.” Neuron 55(6): 890-904). An in vitro assay was used to determine the potency of test compounds as inhibitors of the glutamate response of the channel formed by GluA1o-γ8. To ensure a 1:1 stoichiometry of GluA1o and γ8 subunits in the expressed channel, a fusion of the cDNAs for GRIA1o and CACNG8 was used. Following Shi et al (2009) “The stoichiometry of AMPA receptors and TARPs varies by neuronal cell type.” Neuron 62(5): 633-640), the C-terminus of the cDNA for GRIA1o was fused to the N-terminus of the cDNA for γ8. The linker sequence was QQQQQQQQQQEFAT. Channels expressed with this construct appear to have similar properties to channels formed by co-expression of GRIA1o with an excess of CACNG8 (Shi et al. 2009). A clonal cell line in HEK293 cells stably expressing this construct, with a geneticin selection marker, was generated for use in this assay.
Cell expressing the GRIA1o-CACNG8 fusion construct were grown in a monolayer in 96- or 384-well microtiter plates. They were washed with assay buffer (135 mM NaCl, 4 mM KCl, 3 mM CaCl2, 1 mM MgCl2, 5 mM glucose, 10 mM HEPES, pH 7.4, 300 mOs) using a Biotek EL405 plate washer. The cells were then loaded with a calcium-sensitive dye (Calcium-5 or Calcium-6, Molecular Devices) and the test compounds at a range of concentrations. Calcium flux following the addition of 15 μM glutamate was monitored using a Molecular Devices FLIPR Tetra. The fluorescence in each well was normalized to the fluorescence of negative and positive control wells. The negative control wells had no added compounds, and the positive control wells had been incubated with 10 μM CP465022 (a non-subtype-selective AMPA receptor antagonist) (Lazzaro et al. (2002). “Functional characterization of CP-465,022, a selective, noncompetitive AMPA receptor antagonist.” Neuropharmacology 42(2): 143-153). The responses to glutamate as functions of the test compound concentrations were fitted to a four-parameter logistic function. The fitted parameter corresponding to the midpoint was taken to be the potency of inhibition of the compound. The data in Table 3 below illustrates the observed potentcy for the compounds described herein. pIC50 refers to the negative log of the IC50 in molar.

GluA1o-γ8 (GRIA1o-CACNG8 fusion construct; TARP γ8 dependent AMPA receptor), sequence (P42261 other isoform, or with tags, fused parts or gaps): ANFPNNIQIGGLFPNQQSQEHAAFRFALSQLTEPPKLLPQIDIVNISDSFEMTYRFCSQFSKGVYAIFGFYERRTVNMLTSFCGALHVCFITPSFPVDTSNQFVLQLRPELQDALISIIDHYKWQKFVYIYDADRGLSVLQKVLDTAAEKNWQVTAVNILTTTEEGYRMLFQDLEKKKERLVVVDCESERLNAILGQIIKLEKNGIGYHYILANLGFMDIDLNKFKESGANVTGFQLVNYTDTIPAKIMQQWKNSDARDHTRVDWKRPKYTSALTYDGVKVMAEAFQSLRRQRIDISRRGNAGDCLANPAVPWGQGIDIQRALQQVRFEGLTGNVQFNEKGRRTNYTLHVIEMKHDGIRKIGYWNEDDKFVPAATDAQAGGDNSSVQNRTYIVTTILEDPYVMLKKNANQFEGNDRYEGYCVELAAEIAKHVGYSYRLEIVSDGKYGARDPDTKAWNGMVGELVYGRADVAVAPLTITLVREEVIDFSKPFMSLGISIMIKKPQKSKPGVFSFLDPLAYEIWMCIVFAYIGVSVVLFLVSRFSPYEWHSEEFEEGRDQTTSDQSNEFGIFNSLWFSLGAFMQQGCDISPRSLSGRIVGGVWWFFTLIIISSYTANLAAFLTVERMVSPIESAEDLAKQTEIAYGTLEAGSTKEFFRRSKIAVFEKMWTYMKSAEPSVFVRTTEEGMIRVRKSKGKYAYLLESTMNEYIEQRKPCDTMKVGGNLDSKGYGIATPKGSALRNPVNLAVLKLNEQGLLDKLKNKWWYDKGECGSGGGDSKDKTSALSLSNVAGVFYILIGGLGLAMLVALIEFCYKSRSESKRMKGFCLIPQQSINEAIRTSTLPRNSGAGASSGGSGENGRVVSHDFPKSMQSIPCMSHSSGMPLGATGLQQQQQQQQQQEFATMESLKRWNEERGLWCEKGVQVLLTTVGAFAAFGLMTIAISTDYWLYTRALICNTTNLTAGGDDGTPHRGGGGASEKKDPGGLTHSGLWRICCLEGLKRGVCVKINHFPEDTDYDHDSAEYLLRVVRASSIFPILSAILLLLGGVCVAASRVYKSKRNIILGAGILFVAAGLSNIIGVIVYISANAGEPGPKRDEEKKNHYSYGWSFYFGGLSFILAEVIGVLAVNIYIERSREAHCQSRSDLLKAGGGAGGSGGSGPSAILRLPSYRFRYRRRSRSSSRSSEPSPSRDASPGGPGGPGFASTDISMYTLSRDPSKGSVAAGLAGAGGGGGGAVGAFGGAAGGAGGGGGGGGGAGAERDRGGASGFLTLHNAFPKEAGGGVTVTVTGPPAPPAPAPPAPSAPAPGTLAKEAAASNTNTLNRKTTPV

| pIC50 | IC50 [nM] | SMILES |
| --- | --- | --- |
| 9.9 | – | Cc1cc(-c2c3nc(C(F)(F)F)ccc3nn2C2CCCC2)cc2cn[nH]c12 [Example 8, 2-Cyclopentyl-3-(7-methyl-1H-indazol-5-yl)-5-(trifluoromethyl)-2H-pyrazolo[4,3-b]pyridine] |
| 8.5 | – | FC(F)(F)c1ccc2nn(-c3ccccc3)c(-c3ccc4[nH]ncc4c3)c2n1 [Example 11, 3-(1H-Indazol-5-yl)-2-phenyl-5-(trifluoromethyl)-2H-pyrazolo[4,3-b]pyridine] |
| 9.4 | – | CCn1nc2ccc(C(F)(F)F)nc2c1-c1cc(Cl)c2[nH]ncc2c1 [Example 20, 3-(7-Chloro-1H-indazol-5-yl)-2-ethyl-5-(trifluoromethyl)-2H-pyrazolo[4,3-b]pyridine] |
| 6.9 | – | O=c1[nH]c2ccc(-c3c4nc(C(F)(F)F)ccc4nn3CC3CCC3)cc2[nH]1 [Example 6, 5-(2-(Cyclobutylmethyl)-5-(trifluoromethyl)-2H-pyrazolo[4,3-b]pyridin-3-yl)-1,3-dihydro-2H-benzo[d]imidazol-2-one] |
| 7.6 | – | CC(C)n1nc2ccc(C(F)(F)F)nc2c1-c1ccc2[nH]c(=O)[nH]c2c1 [Example 5, 5-(2-Isopropyl-5-(trifluoromethyl)-2H-pyrazolo[4,3-b]pyridin-3-yl)-1,3-dihydro-2H-benzo[d]imidazol-2-one] |
| 10.2 | – | CC(C)n1nc2ccc(C(F)(F)F)nc2c1-c1cc(Cl)c2[nH]ncc2c1 [Example 24, 3-(7-Chloro-1H-indazol-5-yl)-2-isopropyl-5-(trifluoromethyl)-2H-pyrazolo[4,3-b]pyridine] |
| 9.2 | – | FC(F)n1nc2ccc(C(F)(F)F)nc2c1-c1cc(Cl)c2[nH]ncc2c1 [Example 31, 3-(7-Chloro-1H-indazol-5-yl)-2-(difluoromethyl)-5-(trifluoromethyl)-2H-pyrazolo[4,3-b]pyridine] |
| – | 0.794 | CCn1nc2ccc(C(F)(F)F)nc2c1-c1cc(C)c2[nH]ncc2c1 [Example 19, 2-Ethyl-3-(7-methyl-1H-indazol-5-yl)-5-(trifluoromethyl)-2H-pyrazolo[4,3-b]pyridine] |
| 9.2 | – | Cc1cc(-c2c3nc(C(F)(F)F)ccc3nn2C(F)F)cc2cn[nH]c12 [Example 30, 2-(Difluoromethyl)-3-(7-methyl-1H-indazol-5-yl)-5-(trifluoromethyl)-2H-pyrazolo[4,3-b]pyridine] |
| 8.8 | – | O=c1[nH]c2ccc(-c3c4nc(C(F)(F)F)ccc4nn3-c3ccccc3)cc2[nH]1 [Example 9, 5-(2-Phenyl-5-(trifluoromethyl)-2H-pyrazolo[4,3-b]pyridin-3-yl)-1,3-dihydro-2H-benzo[d]imidazol-2-one] |
| 9.0 | – | Cc1cc(-c2c3nc(C(F)(F)F)ccc3nn2C)cc2cn[nH]c12 [Example 15, 2-Methyl-3-(7-methyl-1H-indazol-5-yl)-5-(trifluoromethyl)-2H-pyrazolo[4,3-b]pyridine] |
| 6.9 | – | FC(F)(F)c1ccc2nn(-c3ccccn3)c(-c3ccc4[nH]ncc4c3)c2n1 [Example 14, 3-(1H-Indazol-5-yl)-2-(pyridin-2-yl)-5-(trifluoromethyl)-2H-pyrazolo[4,3-b]pyridine] |
| 10.7 | – | Cc1cc(-c2c3nc(C(F)(F)F)ccc3nn2C2CCC2)cc2cn[nH]c12 [Example 27, 2-Cyclobutyl-3-(7-methyl-1H-indazol-5-yl)-5-(trifluoromethyl)-2H-pyrazolo[4,3-b]pyridine] |
| 9.5 | – | Cn1nc2ccc(C(F)(F)F)nc2c1-c1cc(Cl)c2[nH]ncc2c1 [Example 16, 3-(7-Chloro-1H-indazol-5-yl)-2-methyl-5-(trifluoromethyl)-2H-pyrazolo[4,3-b]pyridine] |
| 6.1 | – | COCCn1nc2ccc(C(F)(F)F)nc2c1-c1ccc2[nH]ncc2c1 [Example 13, 3-(1H-Indazol-5-yl)-2-(2-methoxyethyl)-5-(trifluoromethyl)-2H-pyrazolo[4,3-b]pyridine] |
| 9.6 | – | Cc1cc(-c2c3nc(C(F)(F)F)ccc3nn2C(C)C)cc2cn[nH]c12 [Example 23, 2-Isopropyl-3-(7-methyl-1H-indazol-5-yl)-5-(trifluoromethyl)-2H-pyrazolo[4,3-b]pyridine] |

The next lines start with the compound.

| SMILES | pIC50 | IC50 [nM] |
| --- | --- | --- |
| CCn1nc2ccc(C(F)(F)F)nc2c1-c1cc(Cl)c2c(c1)CC(=O)N2 [Example 18, 7-Chloro-5-(2-ethyl-5-(trifluoromethyl)-2H-pyrazolo[4,3-b]pyridin-3-yl)indolin-2-one] | 8.6 | – |
| CC(C)n1nc2cccnc2c1-c1cc(Cl)c2[nH]ncc2c1 [Example 39, 3-(7-Chloro-1H-indazol-5-yl)-2-isopropyl-pyrazolo[4,3-b]pyridine] | 7.2 | – |
| Cc1cc(-c2c3nc(C(F)(F)F)ccc3nn2C(F)F)cc2c1NC(=O)C2 [Example 3, 5-[2-(Difluoromethyl)-5-(trifluoromethyl)pyrazolo[4,3-b]pyridin-3-yl]-7-methyl-indolin-2-one] | 9.0 | – |
| O=C1Cc2cc(-c3c4nc(C(F)(F)F)ccc4nn3C3CCC3)cc(Cl)c2N1 [Example 26, 7-Chloro-5-(2-cyclobutyl-5-(trifluoromethyl)-2H-pyrazolo[4,3-b]pyridin-3-yl)indolin-2-one] | 10.5 | – |
| Cc1cc(-c2c3nc(C(F)F)ccc3nn2C(C)C)cc2cn[nH]c12 [Example 34, 5-(Difluoromethyl)-2-isopropyl-3-(7-methyl-1H-indazol-5-yl)-2H-pyrazolo[4,3-b]pyridine] | 10.0 | – |
| Cc1cc(-c2c3nc(C(F)F)cc(C(F)F)c3nn2C(C)C)cc2cn[nH]c12 [Example 40, 5,7-Bis(difluoromethyl)-2-isopropyl-3-(7-methyl-1H-indazol-5-yl)pyrazolo[4,3-b]pyridine] | 9.8 | – |
| CC(C)n1nc2ccc(C(F)F)nc2c1-c1cc(Cl)c2c(c1)CC(=O)N2 [Example 36, 7-Chloro-5-(5-(difluoromethyl)-2-isopropyl-2H-pyrazolo[4,3-b]pyridin-3-yl)indolin-2-one] | 9.4 | – |
| CCn1nc2ccc(C(F)(F)F)nc2c1-c1cc(C)c2c(c1)CC(=O)N2 [Example 17, 5-(2-Ethyl-5-(trifluoromethyl)-2H-pyrazolo[4,3-b]pyridin-3-yl)-7-methylindolin-2-one] | 8.3 | – |
| Cc1cc(-c2c3nc(C(F)(F)F)ccc3nn2C2CCC2)cc2c1NC(=O)C2 [Example 25, 5-(2-Cyclobutyl-5-(trifluoromethyl)-2H-pyrazolo[4,3-b]pyridin-3-yl)-7-methylindolin-2-one] | 10.3 | – |
| Cc1cc(-c2c3nc(C(F)(F)F)ccc3nn2C)cc2c1NC(=O)C2 [Example 2, 7-Methyl-5-(2-methyl-5-(trifluoromethyl)-2H-pyrazolo[4,3-b]pyridin-3-yl)indolin-2-one] | 7.9 | – |
| Cc1cc(-c2c3nccc(C(F)F)c3nn2C(C)C)cc2cn[nH]c12 [Example 38, 7-(Difluoromethyl)-2-isopropyl-3-(7-methyl-1H-indazol-5-yl)pyrazolo[4,3-b]pyridine] | 6.9 | – |
| CC(C)n1nc2ccc(C(F)(F)F)nc2c1-c1cc(Cl)c2c(c1)CC(=O)N2 [Example 22, 7-Chloro-5-(2-isopropyl-5-(trifluoromethyl)-2H-pyrazolo[4,3-b]pyridin-3-yl)indolin-2-one] | 9.6 | – |
| O=c1[nH]c2ccc(-c3c4nc(C(F)(F)F)ccc4nn3C3CCCC3)cc2[nH]1 [Example 7, 5-(2-Cyclopentyl-5-(trifluoromethyl)-2H-pyrazolo[4,3-b]pyridin-3-yl)-1,3-dihydro-2H-benzo[d]imidazol-2-one] | 7.8 | – |
